Measured values published in ChEMBL document CHEMBL4043254, “Discovery of potential antiausterity agents from the Japanese cypress Chamaecyparis obtusa” (2017).
Active and inactive are the calls of the source. The calls are words filed in the database; no cut-off is given here.

How the values were obtained:
[1] = Antiausteritic activity against human KLM1 cells in nutrient-deprived medium measured after 24 hrs by WST8 assay; format: functional
PSN1 = test: Antiausteritic activity against human PSN1 cells in nutrient-deprived medium measured after 24 hrs by WST8 assay; format: functional
CAPAN-1 = test: Antiausteritic activity against human Capan1 cells in nutrient-deprived medium measured after 24 hrs by WST8 assay; format: functional
PANC-1 [2] = test: Antiausteritic activity against human PANC1 cells in nutrient-deprived medium measured after 24 hrs by WST8 assay; format: functional
MIA PaCa-2 = test: Antiausteritic activity against human MIAPaCa2 cells in nutrient-deprived medium measured after 24 hrs by WST8 assay; format: functional
PANC-1 [3] = test: Antiausteritic activity against human PANC1 cells assessed as alterations in cell morphology at 50 uM under nutrient-deprived medium measured at 5 mins interval for 2 hrs by live cell imaging analysis; format: functional, cell-based
PANC-1 [4] = test: Induction of morphological changes in human PANC1 cells assessed as increase in dead cells after 24 hrs by Hoechst 33342/propidium iodide staining based inverted microscopic analysis; format: functional, cell-based
PANC-1 [5] = test: Induction of autophagy in human PANC1 cells assessed as increase in LC3-2 expression after 3 hrs under nutrient deprived medium by Western blot analysis; format: functional, cell-based
PANC-1 [6] = test: Antiausteritic activity against human PANC1 cells assessed as reduction in cell migration at 50 uM under nutrient-deprived medium measured at 5 mins interval for 30 mins by live cell imaging analysis; format: functional, cell-based
PANC-1 [7] = test: Induction of morphological changes in human PANC1 cells assessed as increase in dead cells after 24 hrs by ethidium bromide/acridine orange staining based inverted microscopic analysis; format: functional, cell-based
PANC-1 [8] = test: Antiausteritic activity against human PANC1 cells assessed as decrease in cell index by measuring cell death at 50 uM under nutrient-deprived medium measured at 15 secs interval for 4 hrs by real time cell analysis; format: functional, cell-based
[9] = target: RAC-alpha serine/threonine-protein kinase (Homo sapiens) (UniProt P31749); test: Inhibition of AKT in human PANC1 cells assessed as reduction in mTOR phosphorylation at Ser2448 residue measured after 3 hrs under nutrient deprived condition by Western blot analysis; format: cell-based
Chain of RAC-alpha serine/threonine-protein kinase (Homo sapiens) (P31749 whole entry, the tested form may be a part): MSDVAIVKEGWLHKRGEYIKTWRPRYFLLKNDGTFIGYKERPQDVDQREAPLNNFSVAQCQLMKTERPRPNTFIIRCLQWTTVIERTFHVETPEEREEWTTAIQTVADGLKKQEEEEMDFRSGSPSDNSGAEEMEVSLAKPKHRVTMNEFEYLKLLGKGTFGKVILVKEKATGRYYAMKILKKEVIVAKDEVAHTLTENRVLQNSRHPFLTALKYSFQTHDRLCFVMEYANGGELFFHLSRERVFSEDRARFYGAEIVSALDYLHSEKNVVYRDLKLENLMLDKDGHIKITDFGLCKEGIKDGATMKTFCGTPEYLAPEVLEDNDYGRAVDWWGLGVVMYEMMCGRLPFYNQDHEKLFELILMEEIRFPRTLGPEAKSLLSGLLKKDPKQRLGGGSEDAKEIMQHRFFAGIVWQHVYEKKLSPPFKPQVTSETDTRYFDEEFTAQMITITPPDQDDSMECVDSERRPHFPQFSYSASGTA

PANC-1 [10] = test: Induction of autophagy in human PANC1 cells assessed as increase in LC3-1 expression after 3 hrs under nutrient deprived medium by Western blot analysis; format: functional, cell-based
[11] = target: RAC-alpha serine/threonine-protein kinase (Homo sapiens) (UniProt P31749); test: Inhibition of AKT in human PANC1 cells assessed as reduction in mTOR phosphorylation at Ser2448 residue at 50 uM measured after 3 hrs under nutrient deprived condition by Western blot analysis; format: cell-based
PANC-1 [12] = test: Induction of morphological changes in human PANC1 cells assessed as nuclear fragmentation at 25 to 50 uM after 24 hrs by Hoechst 33342/propidium iodide staining based inverted microscopic analysis; format: functional, cell-based
PANC-1 [13] = test: Antiausteritic activity against human PANC1 cells assessed as cell death at 50 uM under nutrient-deprived medium measured at 5 mins interval for 8 hrs by live cell imaging analysis; format: functional, cell-based
PANC-1 [14] = test: Antiausteritic activity against human PANC1 cells assessed as normalized cell index by measuring cell growth inhibition at 25 uM under nutrient-deprived medium measured at 15 secs interval for 24 hrs by real time cell analysis; format: functional, cell-based
PANC-1 [15] = test: Antiausteritic activity against human PANC1 cells assessed as decrease in cell index under nutrient-deprived medium measured at 15 secs interval for 24 hrs by real time cell analysis; format: functional, cell-based
[16] = target: RAC-alpha serine/threonine-protein kinase (Homo sapiens) (UniProt P31749); test: Inhibition of AKT phosphorylation at Ser473 residues in human PANC1 cells at 50 uM measured within 3 hrs under nutrient deprived condition by Western blot analysis; format: cell-based

| SMILES | PC50 [1] [µM] | PC50 (PSN1) [µM] | PC50 (CAPAN-1) [µM] | PC50 (PANC-1 [2]) [µM] | PC50 (MIA PaCa-2) [µM] | other results |
| --- | --- | --- | --- | --- | --- | --- |
| CC(C)[C@@H]1CC[C@](C)(O)[C@@H]2CCC(CO)=C[C@H]21 | 77.2 | 50.6 | >100 | 82.1 | 29.8 | – |
| C/C1=C/C(=O)CC[C@@](C)(O)CC[C@@H](C(C)C)C1=O | 98.1 | 67.7 | >100 | >100 | >100 | – |
| CC(C)[C@@H]1CC[C@@](C)(O)[C@@H]2CCC(CO)=C[C@H]21 | 95.3 | >100 | >100 | >100 | >100 | – |
| CC(=O)OCC1=C[C@@H]2[C@@H](CC1)[C@@](C)(O)CC[C@H]2C(C)C | 69 | >100 | >100 | – | 35.7 | – |
| O=C1OC[C@H](Cc2ccc3c(c2)OCO3)[C@H]1Cc1ccc2c(c1)OCO2 [HINOKININ] | 92.5 | 60.1 | 50.1 | 64.1 | 21.3 | – |
| CC1=C[C@@H]2[C@@H](CC1)[C@@](C)(O)CC[C@H]2C(C)C [T-CADINOL] | 45.1 | – | – | – | – | Activity (PANC-1 [3]): Active; Activity (PANC-1 [4]): Dose-dependent effect; Activity (PANC-1 [5]): Dose-dependent effect; Activity (PANC-1 [6]): Active; Activity (PANC-1 [7]): Dose-dependent effect; Activity (PANC-1 [8]): Active; inhibition [9]: Dose-dependent effect; Activity (PANC-1 [10]): Dose-dependent effect; inhibition [11]: 100%; Activity (PANC-1 [12]): Active; Activity (PANC-1 [13]): Active; Activity (PANC-1 [14]): Active; Activity (PANC-1 [15]): Dose-dependent effect; inhibition [16]: Active |
| CC1=C[C@@H]2[C@@H](CC1)[C@](C)(O)CC[C@H]2C(C)C | 69.7 | >100 | >100 | 46 | 49.1 | – |
| CC1=C[C@@H]2[C@@H](CC1=O)[C@@](C)(O)CC[C@H]2C(C)C | >100 | >100 | >100 | >100 | >100 | – |
| COc1cc(C[C@H]2C(=O)OC[C@@H]2Cc2ccc(OC)c(OC)c2)ccc1O [ARCTIGENIN] | 0.8 | 0.7 | 1.2 | 0.5 | 1.9 | – |
